The source of these data is article PMC5374982 (Biochemistry, 2016).

Read-outs that look alike come from different tables or passages of the source.

Holding throughout (assay): 1H–[…] HSQC NMR chemical shift titration
Common to all, as to type: binding

The target of assay [1] is T1, XlnB2-E87A (Streptomyces lividans, UniProt P26515, E128A).
Assay [2] deals with T1, XlnB2-E87A. This is another data set of the same source.
The target of another assay is xylanase B2 (XlnB2) (Streptomyces lividans, UniProt P26515).

For orientation: Kd means a measure of binding affinity in units of concentration. As for `OC1OC[C@@H](O[C@@H]2OC[C@@H](O[C@@H]3OC[C@@H](O[C@@H]4OC[C@@H](O[C@@H]5OC[C@@H](O)[C@H](O)[C@H]5O)[C@H](O)[C@H]4O)[C@H](O)[C@H]3O)[C@H](O)[C@H]2O)[C@H](O)[C@H]1O` (stereo partly drawn) [X5, xylopentaose], the dissociation constant Kd at XlnB2-E87A [1] came out at 7.93 mM.
Turning to `OC1OC[C@@H](O[C@@H]2OC[C@@H](O)[C@H](O)[C@H]2O)[C@H](O)[C@H]1O` (stereo partly drawn) [X2, xylobiose], the Kd on XlnB2-E87A [2] was found to be 8.71 mM; at xylanase B2 (XlnB2) it was 7.07 mM.
